From BindingDB's records for doi:10.1021/jm0613121 (Bar-Ilan University, 2007)

Target: T1, Gag-Pol polyprotein [600-1029,C879S]/[600-1159,C879S] (Human immunodeficiency virus 1, UniProt P03366, C879S)
T1 construct: 600-1029; 600-1159
Assay: HIV-1 RT Assay

SMILES | IC50 (pH 7.5, 37 °C) [µM] | IC50 [µM]
NC(=O)CC(=O)c1cccc(C(=O)c2ccccc2)c1 [3-(3-Benzoylphenyl)-3-oxopropanamide] | > 312 | –
N#CCC(=O)c1ccc(Cl)c(Br)c1 [3-(3-Bromo-4-chlorophenyl)-3-oxopropanenitrile] | > 312 | –
NC(=O)CC(=O)c1cccc(Cl)c1 [3-(3-Chlorophenyl)-3-oxopropanamide] | > 312 | –
N#CCC(=O)c1cccc(I)c1 [3-(3-Iodophenyl)-3-oxopropanenitrile] | > 312 | –
NC(=O)CC(=O)c1cccc(-c2ccccc2)c1 [3-Oxo-3-(3-phenylphenyl)propanamide] | > 312 | –
NC(=O)c1[nH]cnc1-c1cccc(C(=O)c2ccccc2)c1 [4-(3-Benzoylphenyl)-1H-imidazole-5-carboxamide] | > 312 | –
NC(=O)c1scnc1-c1cccc(I)c1 [4-(3-Iodophenyl)thiazole-5-carboxamide] | – | > 312
NC(=O)c1[nH]cnc1-c1cccc(-c2ccccc2)c1 [4-(3-Phenylphenyl)-1H-imidazole-5-carboxamide] | – | > 312
NC(=O)c1scnc1-c1cccc(-c2ccccc2)c1 [4-(3-phenylphenyl)-1,3-thiazole-5-carboxamide] | – | > 312
